Laboratory results published in patent publication US12514806B2, “Cosmetic composition comprising ceramides and sphingolipid” (Croda Korea Ltd, priority 2022, dated 2026).

Legend:
Format in all cases: cell-based
[1] = tested on: aquaporin 3; test: Aquaporin 3 expression in 3D skin model by immunofluorescence; conditions: Experimental Example 4; creams including 0.01% and 0.1% of EOP on 3D skin model; compared to control; concentration-dependent; FIGS. 11-12
Description: (§1) To verify the difference in skin moisturizing according to a ceramide content ratio, each of the creams of Examples 1 to 16 was applied to 3D skin model (EPI-201) manufactured by MatTek, and then the expression of aquaporin 3 and filaggrin was examined.
(§2) Aquaporin 3 expression and filaggrin expression were analyzed by immunofluorescence. Specifically, after the 3D skin model was treated with each of the creams of Examples 1 to 16, the 3D skin model was incubated for 48 hours, and then each cream was washed out with PBS. The 3D skin model was put into a cassette and fixed with 10% formalin, and then made into a paraffin block through dehydration, transparency, penetration, and embedding processes. For deparaffinization, slides were prepared by sectioning to 3 μm, and then paraffin was melted in a dry oven at 60° C. for 30 minutes. […] After DAPI mounting, the slides were observed using a fluorescence microscope, and the results thereof are illustrated in FIGS. 1 to 4. […]
(§3) The moisturizing and barrier factors were analyzed by immunofluorescence in the same manner as in Experimental Example 1, and the results thereof are illustrated in FIGS. 11 and 12. […]
(§4) The moisturizing factors were analyzed by immunofluorescence in the same manner as in Experimental Example 1, and the results thereof are illustrated in FIGS. 15 to 18.

[2] = tested on: ceramide; test: Amount of ceramide in 3D skin model by immunofluorescence; conditions: Experimental Example 4; creams including 0.01% and 0.1% of EOP on 3D skin model; compared to control; FIGS. 11-12
Description: as §2, with “minutes. Then, the slides were treated with xylene for 15 minutes, 100% ethanol for 5 minutes, 95% ethanol for 5 minutes, and 70% ethanol for 5 minutes, and washed with tap water. Antigen retrieval was carried out by boiling for 10 minutes in citrate buffer in a cooker, followed by cooling in running water. After treatment with 0.5% Triton X-100 for 15 minutes, the slides were washed three times with PBS buffer for 5 minutes.” for “minutes.”
The moisturizing and barrier factors were analyzed by immunofluorescence in the same manner as in Experimental Example 1, and the results thereof are illustrated in FIGS. 11 and 12.

[3] = tested on: filaggrin; test: Filaggrin expression in 3D skin model by immunofluorescence; conditions: Experimental Example 4; creams including 0.01% and 0.1% of EOP on 3D skin model; compared to control; concentration-dependent; FIGS. 11-12
Description: as §1, §2, §3, §4

ceramide EOP
increased: amount of aquaporin 3 [1] | amount of ceramide [2] | amount of filaggrin [3]
